# Experiments:
# Zika virus [1] = type: cell-based
# [2] = tested on: Rift Valley fever virus (RVFV); assay: microbe, parasite or virus in culture; type: cell-based; conditions: Vero 76
# Influenza A (H5N1) = assay: microbe, parasite or virus in culture; type: cell-based
# RSV = assay: microbe, parasite or virus in culture; type: cell-based; conditions: human respiratory syncytial virus, MA104
# Influenza A (H1N1) = assay: microbe, parasite or virus in culture; type: cell-based
# Influenza B = assay: microbe, parasite or virus in culture; type: cell-based
# in vitro [3] = conditions: African green monkey
# enterovirus-68 (EV-68) = type: cell-based
# Zika virus [4] = conditions: nucleoside applied to cells, phosphorylated to ddhCTP; cited from earlier work
# in vitro [5] = conditions: human
compound,measurement,setting,value
C#C[C@@]1(O)[C@H](O)[C@@H](CO)O[C@H]1n1ccc2c(N)ncnc21 [NITD008],EC50,Zika virus [1],1.8 µg/mL
NC(=O)c1ncn([C@@H]2O[C@H](CO)[C@@H](O)[C@H]2O)n1 [Ribavirin],EC50,[2],14 µg/mL
same,EC50,"Influenza A (H5N1); Influenza A virus, H5N1, MDCK",1.8 µg/mL
same,EC50,RSV,7.3 µg/mL
same,EC50,"Influenza A (H1N1); Influenza A virus, H1N1, MDCK",4.6 µg/mL
same,EC50,"Influenza B; Influenza B virus, MDCK",1.4 µg/mL
Nc1nc2c(ncn2[C@@H]2OC(CO)=CC2O)c(=O)[nH]1 (stereo partly drawn) [AB21651],antiviral activity (in words),Influenza A (H5N1),exhibits antiviral activity
same,antiviral activity (in words),Influenza A (H1N1),exhibits antiviral activity
O=c1ccn([C@@H]2OC(CO)=C[C@H]2O)c(=O)[nH]1 [AB21649],antiviral activity (in words),Influenza A (H5N1),exhibits antiviral activity
same,antiviral activity (in words),Influenza A (H1N1),exhibits antiviral activity
same,antiviral activity (in words),Influenza B,exhibits antiviral activity
CC(C)S(=O)(=O)n1c(N)nc2ccc(/C(=N/O)c3ccccc3)cc21 [Enviroxime],CC50,in vitro [3],3.3 µg/mL
"Nc1ccn([C@@H]2OC(CO)=C[C@H]2O)c(=O)n1 [AB21650, 3′-deoxy-3′,4′-didehydro cytidine]",antiviral activity (in words),enterovirus-68 (EV-68),exhibits some activity
same,replication of Zika virus,Zika virus [4],directly inhibit replication of Zika virus
CCOC(=O)c1ccc(OCCC2CCN(c3ccc(C)nn3)CC2)cc1 [Pirodavir],CC50,in vitro [5],4.3 µg/mL
